Tests used:
Format in all cases: in vivo
[1] = tested on: field corn (Zea mays L., var. Dekalb 535, CORN); assay: Pre-emerge test, crop safety; conditions: crop damage, pre-emerge, phytotoxicity rating 0-100 at 14 days after application
Outline: (§1)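 Herbicidal damage is scored 0 (none) to 100 (complete plant death) two weeks after a simulated field spray. Rates span 15–1000 g ai/ha, delivered in acetone at 187 l/ha. For post-emergence treatments, plants have 2–3 leaves and the spray carries 0.25% v/v non-ionic surfactant.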

[2] = tested on: upland rice (Oryza sp., var. Tebonnet, RICE); assay: Pre-emerge test, crop safety; conditions: crop damage, pre-emerge, phytotoxicity rating 0-100 at 14 days after application
Outline: as §1

[3] = tested on: velvetleaf (Abutilon theophrasti, ABUTH); assay: Pre-emerge test, greenhouse herbicide activity screening; conditions: pre-emerge, phytotoxicity rating 0-100 at 14 days after application
Outline: (§2)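 Fourteen days after spraying, crop and weed injury was graded visually from 0, no effect, to 100, every plant dead. Test substances were dissolved in acetone and applied at 15–1000 g ai/ha with a flat-fan nozzle. Application was either pre-emergence, one day after sowing, or post-emergence at the 2–3 leaf stage.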

[4] = tested on: green foxtail (Setaria viridis, SETVI); assay: as above; conditions: pre-emerge, phytotoxicity rating 0-100 at 14 days after application
Outline: as §2

[5] = tested on: lambsquarters (Chenopodium album, CHEAL); assay: as above; conditions: pre-emerge, phytotoxicity rating 0-100 at 14 days after application
Outline: as §2

[6] = tested on: ivyleaf morningglory (Ipomoea hederacea, IPOHE); assay: as above; conditions: pre-emerge, phytotoxicity rating 0-100 at 14 days after application
Outline: as §2

[7] = tested on: johnsongrass (Sorghum halepense, SORHA); assay: as above; conditions: pre-emerge, phytotoxicity rating 0-100 at 14 days after application
Outline: as §2

[8] = tested on: barnyardgrass (Echinochloa crus-galli, ECHCG); assay: as above; conditions: pre-emerge, phytotoxicity rating 0-100 at 14 days after application
Outline: as §2

[9] = tested on: sicklepod (Cassia obtusifolia, CASOB); assay: as above; conditions: pre-emerge, phytotoxicity rating 0-100 at 14 days after application
Outline: as §2

[10] = tested on: large crabgrass (Digitaria sanguinalis, DIGSA); assay: as above; conditions: pre-emerge, phytotoxicity rating 0-100 at 14 days after application
Outline: as §2

[11] = tested on: redroot pigweed (Amaranthus retroflexus, AMARE); assay: Post-emerge test, greenhouse herbicide activity screening; conditions: post-emerge, 14 days after application
Outline: (§3)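 Each test used a mechanized track sprayer delivering 187 l/ha of acetone solution at 15–1000 g ai/ha. Post-emerge foliage at 2–3 leaves was treated with added 0.25% v/v non-ionic surfactant and bottom-watered only. Injury was assessed on day 14, where 100 means total kill.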

[12] = tested on: velvetleaf (Abutilon theophrasti, ABUTH); assay: as above; conditions: post-emerge, 14 days after application, rating scale 0-100
Outline: as §3

[13] = tested on: green foxtail (Setaria viridis, SETVI); assay: as above; conditions: post-emerge, 14 days after application, rating scale 0-100
Outline: as §3

[14] = tested on: lambsquarters (Chenopodium album, CHEAL); assay: as above; conditions: post-emerge, 14 days after application, rating scale 0-100
Outline: as §3

[15] = tested on: ivyleaf morningglory (Ipomoea hederacea, IPOHE); assay: as above; conditions: post-emerge, 14 days after application, rating scale 0-100
Outline: as §3

[16] = tested on: johnsongrass (Sorghum halepense, SORHA); assay: as above; conditions: post-emerge, 14 days after application, rating scale 0-100
Outline: as §3

[17] = tested on: barnyardgrass (Echinochloa crus-galli, ECHCG); assay: as above; conditions: post-emerge, 14 days after application, rating scale 0-100
Outline: as §3

[18] = tested on: sicklepod (Cassia obtusifolia, CASOB); assay: as above; conditions: post-emerge, 14 days after application, rating scale 0-100
Outline: as §3

[19] = tested on: large crabgrass (Digitaria sanguinalis, DIGSA); assay: as above; conditions: post-emerge, 14 days after application, rating scale 0-100
Outline: as §3

[20] = tested on: field corn (Zea mays L., var. Dekalb 535, CORN); assay: Post-emerge test, crop safety; conditions: post-emerge, 14 days after application, rating scale 0-100
Outline: as §2

[21] = tested on: upland rice (Oryza sp., var. Tebonnet, RICE); assay: Post-emerge test, crop safety; conditions: post-emerge, 14 days after application, rating scale 0-100
Outline: as §2

[22] = tested on: redroot pigweed (Amaranthus retroflexus, AMARE); assay: Pre-emerge test, greenhouse herbicide activity screening; conditions: pre-emerge, phytotoxicity rating 0-100 at 14 days after application
Outline: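 Rating: 0–100 visual injury, 14 DAA. Application: acetone, 187 l/ha, 15–1000 g ai/ha, flat-fan track sprayer with nozzle 40–45 cm above soil or canopy. Post-emerge runs used 0.25% v/v surfactant on 2–3 leaf plants.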

Cc1cccc(C)c1OC(=O)Nc1c(C)c(Cl)cc(F)c1-n1c(=O)cc(C(F)(F)F)n(C)c1=O [4-55]
Pre-emerge Herbicidal Activity CORN ([1]; rate 63 g ai/ha): 0
Pre-emerge Herbicidal Activity CORN ([1]; rate 250 g ai/ha): 30
Pre-emerge Herbicidal Activity RICE ([2]; rate 63 g ai/ha): 0
Pre-emerge Herbicidal Activity RICE ([2]; rate 250 g ai/ha): 60
Pre-emerge Herbicidal Activity ABUTH ([3]; rate 63 g ai/ha): 80
Pre-emerge Herbicidal Activity ABUTH ([3]; rate 250 g ai/ha): 100
Pre-emerge Herbicidal Activity SETVI ([4]; rate 63 g ai/ha): 40
Pre-emerge Herbicidal Activity SETVI ([4]; rate 250 g ai/ha): 90
Pre-emerge Herbicidal Activity CHEAL ([5]; rate 63 g ai/ha): 90
Pre-emerge Herbicidal Activity CHEAL ([5]; rate 250 g ai/ha): 100
Pre-emerge Herbicidal Activity IPOHE ([6]; rate 63 g ai/ha): 20
Pre-emerge Herbicidal Activity IPOHE ([6]; rate 250 g ai/ha): 70
Pre-emerge Herbicidal Activity SORHA ([7]; rate 63 g ai/ha): 0
Pre-emerge Herbicidal Activity SORHA ([7]; rate 250 g ai/ha): 60
Pre-emerge Herbicidal Activity ECHCG ([8]; rate 63 g ai/ha): 0
Pre-emerge Herbicidal Activity ECHCG ([8]; rate 250 g ai/ha): 30
Pre-emerge Herbicidal Activity CASOB ([9]; rate 63 g ai/ha): 0
Pre-emerge Herbicidal Activity CASOB ([9]; rate 250 g ai/ha): 30
Pre-emerge Herbicidal Activity DIGSA ([10]; rate 63 g ai/ha): 0
Pre-emerge Herbicidal Activity DIGSA ([10]; rate 250 g ai/ha): 70
phytotoxicity rating AMARE ([11]; 63 g ai/ha, rating scale 0-100 (0 no damage, 100 complete death)): 50
phytotoxicity rating AMARE ([11]; 250 g ai/ha, rating scale 0-100): 80
phytotoxicity rating ABUTH ([12]; 63 g ai/ha): 100
phytotoxicity rating ABUTH ([12]; 250 g ai/ha): 100
phytotoxicity rating SETVI ([13]; 63 g ai/ha): 10
phytotoxicity rating SETVI ([13]; 250 g ai/ha): 40
phytotoxicity rating CHEAL ([14]; 63 g ai/ha): 50
phytotoxicity rating CHEAL ([14]; 250 g ai/ha): 90
phytotoxicity rating IPOHE ([15]; 63 g ai/ha): 40
phytotoxicity rating IPOHE ([15]; 250 g ai/ha): 85
phytotoxicity rating SORHA ([16]; 63 g ai/ha): 0
phytotoxicity rating SORHA ([16]; 250 g ai/ha): 10
phytotoxicity rating ECHCG ([17]; 63 g ai/ha): 0
phytotoxicity rating ECHCG ([17]; 250 g ai/ha): 20
phytotoxicity rating CASOB ([18]; 63 g ai/ha): 20
phytotoxicity rating CASOB ([18]; 250 g ai/ha): 40
phytotoxicity rating DIGSA ([19]; 63 g ai/ha): 0
phytotoxicity rating DIGSA ([19]; 250 g ai/ha): 10
phytotoxicity rating CORN (crop damage) ([20]; 63 g ai/ha): 10
phytotoxicity rating CORN (crop damage) ([20]; 250 g ai/ha): 5
phytotoxicity rating RICE (crop damage) ([21]; 63 g ai/ha): 0
phytotoxicity rating RICE (crop damage) ([21]; 250 g ai/ha): 35
Pre-emerge Herbicidal Activity AMARE ([22]; rate 63 g ai/ha): 30
Pre-emerge Herbicidal Activity AMARE ([22]; rate 250 g ai/ha): 90
